Results published in ChEMBL document CHEMBL1201862, “PubChem BioAssay data set” (2004).
One block for each molecule: values may come before it. Calls of active or inactive are those of the source.

What was measured:
[1] = Counterscreen for inhibitors of Trypanosoma brucei methionyl tRNA synthetase (MetRS): Luminescence-based cell-based high throughput dose response assay to identify compounds that are cytotoxic to Jurkat human T lymphocyte cells.; assay type: functional
[2] = inhibitors of intracellular T. cruzi replication, confirmation, NIH3T3 host cells, beta-gal luminescence (AID 2044); assay type: functional, cell-based;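 further: intracellular parasites grown in NIH/3T3 mouse fibroblasts as host cells; luminescent beta-galactosidase reporter signal from transgenic T. cruzi replicating inside host cells; inhibitors lower the luminescence signal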
Paired box protein Pax-8 = Paired box protein Pax-8 (Homo sapiens, UniProt Q06710); assay: inhibitors of PAX8-driven TPO luciferase reporter, dose response, RMG-I cells, cherry-pick (AID 687027); assay type: functional, cell-based;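 further: luciferase reporter driven by Pax8 target thyroperoxidase promoter measured by SteadyGlo luminescence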
Sequence of Paired box protein Pax-8 (Q06710 whole entry): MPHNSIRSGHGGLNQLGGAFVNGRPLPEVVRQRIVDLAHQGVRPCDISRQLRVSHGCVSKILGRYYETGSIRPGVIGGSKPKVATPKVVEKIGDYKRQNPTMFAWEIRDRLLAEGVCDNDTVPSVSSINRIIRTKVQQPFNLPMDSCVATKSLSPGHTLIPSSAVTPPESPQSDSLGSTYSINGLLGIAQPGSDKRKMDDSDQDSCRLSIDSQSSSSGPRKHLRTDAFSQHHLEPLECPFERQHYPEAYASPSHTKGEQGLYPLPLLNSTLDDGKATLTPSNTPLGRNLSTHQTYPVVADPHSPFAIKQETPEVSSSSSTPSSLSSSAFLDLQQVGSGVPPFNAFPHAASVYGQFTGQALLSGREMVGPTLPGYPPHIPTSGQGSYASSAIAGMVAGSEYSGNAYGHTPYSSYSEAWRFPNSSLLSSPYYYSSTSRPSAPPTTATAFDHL

[3] = cytotoxicity toward NIH3T3 fibroblasts, dose response, counter-screen, cell-based, ATP luminescence, mouse fibroblasts (AID 2010); assay type: functional;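 further: cells exposed to compound for about 90 hours before reading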
Beta Lactamase = Beta Lactamase (Pseudomonas aeruginosa, UniProt Q932Y6); assay: beta-lactamase reporter inhibitor potency, dose response, artefact control for NOD2-RIPK2 interaction inhibitor project, BLA reporter cells, FRET fluorescence (AID 651552); assay type: functional, cell-based
Sequence of Beta Lactamase (Q932Y6 whole entry, the tested form may be a part): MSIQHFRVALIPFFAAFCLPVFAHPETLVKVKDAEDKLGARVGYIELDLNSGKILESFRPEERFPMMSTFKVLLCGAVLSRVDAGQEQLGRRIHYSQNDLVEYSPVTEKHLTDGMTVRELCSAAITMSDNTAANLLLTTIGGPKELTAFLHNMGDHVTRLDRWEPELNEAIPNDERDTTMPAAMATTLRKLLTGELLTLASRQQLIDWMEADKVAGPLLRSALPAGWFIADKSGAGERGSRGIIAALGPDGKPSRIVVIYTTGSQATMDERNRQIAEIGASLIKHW

[4] = Fluorescence-based cell-based high throughput dose response assay for inhibitors of the interaction of nucleotide-binding oligomerization domain containing 2 (NOD2) and the receptor-interacting serine-threonine kinase 2 (RIPK2).; assay type: functional; details: Homo sapiens
[5] = molecular target: 26S proteasome non-ATPase regulatory subunit 14 (Homo sapiens, UniProt O00487); assay: inhibition of proteasome subunit RPN11 – biochemical, fluorescence polarization, uHTS hits, confirmation (AID 602368); assay type: functional
Sequence of 26S proteasome non-ATPase regulatory subunit 14 (O00487 whole entry): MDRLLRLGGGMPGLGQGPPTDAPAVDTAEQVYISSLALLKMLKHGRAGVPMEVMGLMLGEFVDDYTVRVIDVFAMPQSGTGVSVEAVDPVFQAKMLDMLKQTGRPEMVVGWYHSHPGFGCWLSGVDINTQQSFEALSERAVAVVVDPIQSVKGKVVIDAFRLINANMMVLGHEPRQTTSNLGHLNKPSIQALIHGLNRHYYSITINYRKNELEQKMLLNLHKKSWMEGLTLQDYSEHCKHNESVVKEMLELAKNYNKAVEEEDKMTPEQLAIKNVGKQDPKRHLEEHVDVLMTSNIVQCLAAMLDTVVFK

[6] = molecular target: 72 kDa type IV collagenase (Homo sapiens, UniProt P08253); assay: Dose Response validation of uHTS RPN11 inhibitor hits using a MMP-2 Fluorescence assay.; assay type: functional
Sequence of 72 kDa type IV collagenase (P08253 whole entry): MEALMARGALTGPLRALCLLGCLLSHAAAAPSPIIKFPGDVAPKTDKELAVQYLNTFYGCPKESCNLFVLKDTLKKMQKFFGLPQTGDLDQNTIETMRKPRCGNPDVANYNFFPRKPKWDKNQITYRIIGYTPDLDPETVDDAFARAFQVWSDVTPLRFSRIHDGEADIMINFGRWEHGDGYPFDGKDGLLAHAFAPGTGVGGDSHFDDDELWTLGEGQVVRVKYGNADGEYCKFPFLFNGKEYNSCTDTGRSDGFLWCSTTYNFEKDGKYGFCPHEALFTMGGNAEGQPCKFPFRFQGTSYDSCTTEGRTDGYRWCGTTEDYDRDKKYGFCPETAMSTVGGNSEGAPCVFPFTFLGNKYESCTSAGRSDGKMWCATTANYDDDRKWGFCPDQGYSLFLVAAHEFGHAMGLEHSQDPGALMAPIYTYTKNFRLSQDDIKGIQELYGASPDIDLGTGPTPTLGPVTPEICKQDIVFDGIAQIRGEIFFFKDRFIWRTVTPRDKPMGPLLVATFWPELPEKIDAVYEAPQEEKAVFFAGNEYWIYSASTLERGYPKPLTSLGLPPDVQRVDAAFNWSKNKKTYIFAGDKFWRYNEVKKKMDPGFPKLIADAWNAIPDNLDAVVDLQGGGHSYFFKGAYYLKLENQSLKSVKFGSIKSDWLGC

Prothrombin = Prothrombin (Bos taurus, UniProt P00735); assay: thrombin inhibition, dose response, biochemical, fluorescence polarization, uHTS hits (AID 602369); assay type: functional
[7] = CRF-BP/CRF-R2 complex antagonists, dose response, cell-based, uHTS hits, 384-well (AID 651639); assay type: functional, Homo sapiens; details: read-out: IC50_Mean
[8] = molecular target: T1, Sentrin-specific protease 1 (Homo sapiens, UniProt Q9P0U3); assay: potency of human SENP1 inhibitors, dose response, biochemical, kinetic FRET (AID 651697); assay type: functional; details: read-out: IC50_Mean
T1 sequence (Q9P0U3 whole entry): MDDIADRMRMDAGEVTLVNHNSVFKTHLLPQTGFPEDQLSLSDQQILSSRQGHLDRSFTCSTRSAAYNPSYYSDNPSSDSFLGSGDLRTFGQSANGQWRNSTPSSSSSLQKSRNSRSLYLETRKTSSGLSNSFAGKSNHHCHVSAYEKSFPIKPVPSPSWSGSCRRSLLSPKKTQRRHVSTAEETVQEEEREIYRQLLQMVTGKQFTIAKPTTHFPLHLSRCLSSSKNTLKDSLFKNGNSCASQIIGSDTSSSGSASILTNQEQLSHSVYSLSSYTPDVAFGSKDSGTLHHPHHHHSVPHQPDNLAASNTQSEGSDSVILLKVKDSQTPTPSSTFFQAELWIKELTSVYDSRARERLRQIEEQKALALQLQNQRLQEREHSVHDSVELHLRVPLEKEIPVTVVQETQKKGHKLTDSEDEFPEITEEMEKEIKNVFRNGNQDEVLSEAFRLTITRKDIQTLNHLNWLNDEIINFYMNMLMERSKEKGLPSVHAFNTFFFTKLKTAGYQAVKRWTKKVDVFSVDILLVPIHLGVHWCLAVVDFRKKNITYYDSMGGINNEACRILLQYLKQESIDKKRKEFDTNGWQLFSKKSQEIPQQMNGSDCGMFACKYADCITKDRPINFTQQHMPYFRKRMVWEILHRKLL

[9] = molecular target: T2, Heat shock factor protein 1 (Mus musculus, UniProt P38532); assay: inhibition of MG132-induced HSE-luciferase signal, confirmation, cell-based, NIH3T3, luminescence, dose retest (AID 2382); assay type: functional;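 further: NIH3T3 fibroblasts with HSF1-driven luciferase reporter stressed by proteasome inhibitor MG132; luminescence from HSF1-driven luciferase expression after 8 hours of MG132 stress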
T2 sequence (P38532 whole entry): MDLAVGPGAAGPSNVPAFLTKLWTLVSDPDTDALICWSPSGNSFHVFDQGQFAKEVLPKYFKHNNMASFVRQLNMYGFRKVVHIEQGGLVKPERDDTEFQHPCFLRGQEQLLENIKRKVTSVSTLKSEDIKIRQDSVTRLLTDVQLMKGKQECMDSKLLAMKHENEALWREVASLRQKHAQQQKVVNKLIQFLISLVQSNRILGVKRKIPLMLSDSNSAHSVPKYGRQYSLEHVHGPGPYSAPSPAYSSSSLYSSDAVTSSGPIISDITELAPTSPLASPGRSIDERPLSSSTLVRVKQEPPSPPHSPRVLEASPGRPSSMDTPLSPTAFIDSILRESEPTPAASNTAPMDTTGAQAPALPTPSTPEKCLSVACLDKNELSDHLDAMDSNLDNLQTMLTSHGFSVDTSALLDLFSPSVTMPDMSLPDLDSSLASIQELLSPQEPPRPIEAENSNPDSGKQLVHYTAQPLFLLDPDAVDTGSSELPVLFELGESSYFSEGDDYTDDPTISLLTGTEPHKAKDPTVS

[10] = molecular target: T1, Sentrin-specific protease 1; assay: Dose response confirmation of small molecule inhibitors of the catalytic domain of the SUMO protease, SENP1 in a FRET assay.; assay type: functional; details: read-out: IC50_Mean

- IC50 [5]: 98.6 µM (active)
- IC50 [6]: > 100 µM (inactive)
- IC50 (Prothrombin): 85.3 µM (active)
SMILES: Cc1nnc(SCc2nc3scc(-c4ccccc4)c3c(=O)[nH]2)s1

- IC50 [7]: 14.8 µM (active)
SMILES: Fc1ccccc1CN=C(S)Nc1ccc(Cl)cc1

- IC50 [8]: 31 µM (inactive)
- IC50 [10]: 11 µM (active)
SMILES: COc1ccc(N2C(=O)C3C(C2=O)C(C(=O)c2ccccc2)N2CCCC32)cc1 (stereo not given)

The next lines start with the molecule.

SMILES: COc1ccc(NC(=O)COC(=O)CCCOc2ccc(Cl)cc2Cl)cc1
- IC50 [1]: 83.3 µM (inactive)

SMILES: COc1ccc(OC)c2sc(N(CCCN(C)C)C(=O)CCS(=O)(=O)c3ccccc3)nc12
- EC50 [2]: 4.32 µM (active)
- AC50 (Paired box protein Pax-8): 4.77 µM (active)
- EC50 [3]: 6.44 µM (active)
- IC50 (Beta Lactamase): 32.1 µM (inactive)
- IC50 [4]: 2.06 µM (active)

SMILES: NC(=O)CCC(C(=O)O)N1C(=O)c2ccc(O)cc2C1=O (stereo not given)
- IC50 [8]: 23.9 µM (inactive)
- EC50 [9]: > 195 µM (not active)
- IC50 [10]: 16.9 µM (active)
